Measurements reported in patent publication US9428503B2, “Imidazo[4,5-c]quinolin-2-one compounds and their use in treating Cancer” (AstraZeneca AB, priority 2014, dated 2016).
pIC50: −log10 of the molar value. Where “and” joins values, the source holds several entries; their conditions need not be identical. Equal values may be shown once. Where a name gives a salt, the structure may show the parent alone.

Key:
Type in all cases: cell-based
mTOR = mTOR (Homo sapiens (Human), UniProt P42345); assay: Assay d) mTOR cellular potency assay (phospho-AKT Ser473 in MDA-MB-468 cells); settings: MDA-MB-468 cells, phospho-AKT Ser473, 2 h; geometric mean where repeated; read-out: Assay d) mTOR Cell IC50
ATM kinase = ATM kinase (Homo sapiens (Human), UniProt Q13315); assay: Assay a) ATM cellular potency assay (pATM Ser1981 in X-ray irradiated HT29 cells); settings: HT29 cells, pATM Ser1981 after X-ray irradiation; geometric mean where repeated; read-out: Assay a) ATM Cell IC50
ATR kinase = ATR kinase (Homo sapiens (Human), UniProt Q13535); assay: Assay b) ATR cellular potency assay (pChk1 Ser345 in HT29 cells treated with 4NQO); settings: HT29 cells, pChk1 Ser345 after 4NQO; geometric mean where repeated; read-out: Assay b) ATR Cell IC50
PI3K-α = PI3K-α (Homo sapiens, UniProt P42336); assay: Assay c) PI3K cellular potency assay (phospho-Akt T308 ELISA in BT474 cells); settings: BT474 cells, phospho-Akt T308, 2 h; geometric mean where repeated; read-out: Assay c) PI3Kα Cell IC50
PI3K-α, sequence (P42336 whole entry, looked up): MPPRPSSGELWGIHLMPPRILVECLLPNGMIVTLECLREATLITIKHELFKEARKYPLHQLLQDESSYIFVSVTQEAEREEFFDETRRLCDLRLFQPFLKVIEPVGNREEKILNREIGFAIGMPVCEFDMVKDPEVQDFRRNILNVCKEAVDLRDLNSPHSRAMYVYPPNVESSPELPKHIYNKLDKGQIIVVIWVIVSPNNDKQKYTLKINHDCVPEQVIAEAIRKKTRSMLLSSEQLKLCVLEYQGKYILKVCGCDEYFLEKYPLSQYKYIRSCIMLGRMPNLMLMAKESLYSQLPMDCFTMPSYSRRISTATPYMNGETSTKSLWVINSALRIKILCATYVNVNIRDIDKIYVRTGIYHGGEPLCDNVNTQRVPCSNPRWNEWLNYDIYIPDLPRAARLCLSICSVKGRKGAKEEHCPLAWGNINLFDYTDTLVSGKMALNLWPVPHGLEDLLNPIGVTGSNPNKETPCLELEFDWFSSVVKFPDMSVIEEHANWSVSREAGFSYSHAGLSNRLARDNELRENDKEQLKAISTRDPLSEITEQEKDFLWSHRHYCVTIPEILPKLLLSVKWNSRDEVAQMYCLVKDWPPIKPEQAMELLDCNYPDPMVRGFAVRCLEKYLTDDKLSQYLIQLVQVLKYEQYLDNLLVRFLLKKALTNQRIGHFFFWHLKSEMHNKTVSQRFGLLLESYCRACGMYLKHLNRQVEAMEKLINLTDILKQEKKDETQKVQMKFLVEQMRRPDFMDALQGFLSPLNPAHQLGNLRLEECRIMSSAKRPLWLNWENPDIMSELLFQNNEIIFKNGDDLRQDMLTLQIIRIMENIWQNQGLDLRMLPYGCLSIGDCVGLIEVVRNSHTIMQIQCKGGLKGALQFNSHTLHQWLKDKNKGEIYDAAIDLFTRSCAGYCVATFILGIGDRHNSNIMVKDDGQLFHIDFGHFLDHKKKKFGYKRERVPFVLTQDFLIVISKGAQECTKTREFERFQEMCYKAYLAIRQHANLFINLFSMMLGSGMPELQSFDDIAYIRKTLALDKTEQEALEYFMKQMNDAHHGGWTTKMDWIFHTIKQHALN

ATR kinase, sequence (Q13535 whole entry): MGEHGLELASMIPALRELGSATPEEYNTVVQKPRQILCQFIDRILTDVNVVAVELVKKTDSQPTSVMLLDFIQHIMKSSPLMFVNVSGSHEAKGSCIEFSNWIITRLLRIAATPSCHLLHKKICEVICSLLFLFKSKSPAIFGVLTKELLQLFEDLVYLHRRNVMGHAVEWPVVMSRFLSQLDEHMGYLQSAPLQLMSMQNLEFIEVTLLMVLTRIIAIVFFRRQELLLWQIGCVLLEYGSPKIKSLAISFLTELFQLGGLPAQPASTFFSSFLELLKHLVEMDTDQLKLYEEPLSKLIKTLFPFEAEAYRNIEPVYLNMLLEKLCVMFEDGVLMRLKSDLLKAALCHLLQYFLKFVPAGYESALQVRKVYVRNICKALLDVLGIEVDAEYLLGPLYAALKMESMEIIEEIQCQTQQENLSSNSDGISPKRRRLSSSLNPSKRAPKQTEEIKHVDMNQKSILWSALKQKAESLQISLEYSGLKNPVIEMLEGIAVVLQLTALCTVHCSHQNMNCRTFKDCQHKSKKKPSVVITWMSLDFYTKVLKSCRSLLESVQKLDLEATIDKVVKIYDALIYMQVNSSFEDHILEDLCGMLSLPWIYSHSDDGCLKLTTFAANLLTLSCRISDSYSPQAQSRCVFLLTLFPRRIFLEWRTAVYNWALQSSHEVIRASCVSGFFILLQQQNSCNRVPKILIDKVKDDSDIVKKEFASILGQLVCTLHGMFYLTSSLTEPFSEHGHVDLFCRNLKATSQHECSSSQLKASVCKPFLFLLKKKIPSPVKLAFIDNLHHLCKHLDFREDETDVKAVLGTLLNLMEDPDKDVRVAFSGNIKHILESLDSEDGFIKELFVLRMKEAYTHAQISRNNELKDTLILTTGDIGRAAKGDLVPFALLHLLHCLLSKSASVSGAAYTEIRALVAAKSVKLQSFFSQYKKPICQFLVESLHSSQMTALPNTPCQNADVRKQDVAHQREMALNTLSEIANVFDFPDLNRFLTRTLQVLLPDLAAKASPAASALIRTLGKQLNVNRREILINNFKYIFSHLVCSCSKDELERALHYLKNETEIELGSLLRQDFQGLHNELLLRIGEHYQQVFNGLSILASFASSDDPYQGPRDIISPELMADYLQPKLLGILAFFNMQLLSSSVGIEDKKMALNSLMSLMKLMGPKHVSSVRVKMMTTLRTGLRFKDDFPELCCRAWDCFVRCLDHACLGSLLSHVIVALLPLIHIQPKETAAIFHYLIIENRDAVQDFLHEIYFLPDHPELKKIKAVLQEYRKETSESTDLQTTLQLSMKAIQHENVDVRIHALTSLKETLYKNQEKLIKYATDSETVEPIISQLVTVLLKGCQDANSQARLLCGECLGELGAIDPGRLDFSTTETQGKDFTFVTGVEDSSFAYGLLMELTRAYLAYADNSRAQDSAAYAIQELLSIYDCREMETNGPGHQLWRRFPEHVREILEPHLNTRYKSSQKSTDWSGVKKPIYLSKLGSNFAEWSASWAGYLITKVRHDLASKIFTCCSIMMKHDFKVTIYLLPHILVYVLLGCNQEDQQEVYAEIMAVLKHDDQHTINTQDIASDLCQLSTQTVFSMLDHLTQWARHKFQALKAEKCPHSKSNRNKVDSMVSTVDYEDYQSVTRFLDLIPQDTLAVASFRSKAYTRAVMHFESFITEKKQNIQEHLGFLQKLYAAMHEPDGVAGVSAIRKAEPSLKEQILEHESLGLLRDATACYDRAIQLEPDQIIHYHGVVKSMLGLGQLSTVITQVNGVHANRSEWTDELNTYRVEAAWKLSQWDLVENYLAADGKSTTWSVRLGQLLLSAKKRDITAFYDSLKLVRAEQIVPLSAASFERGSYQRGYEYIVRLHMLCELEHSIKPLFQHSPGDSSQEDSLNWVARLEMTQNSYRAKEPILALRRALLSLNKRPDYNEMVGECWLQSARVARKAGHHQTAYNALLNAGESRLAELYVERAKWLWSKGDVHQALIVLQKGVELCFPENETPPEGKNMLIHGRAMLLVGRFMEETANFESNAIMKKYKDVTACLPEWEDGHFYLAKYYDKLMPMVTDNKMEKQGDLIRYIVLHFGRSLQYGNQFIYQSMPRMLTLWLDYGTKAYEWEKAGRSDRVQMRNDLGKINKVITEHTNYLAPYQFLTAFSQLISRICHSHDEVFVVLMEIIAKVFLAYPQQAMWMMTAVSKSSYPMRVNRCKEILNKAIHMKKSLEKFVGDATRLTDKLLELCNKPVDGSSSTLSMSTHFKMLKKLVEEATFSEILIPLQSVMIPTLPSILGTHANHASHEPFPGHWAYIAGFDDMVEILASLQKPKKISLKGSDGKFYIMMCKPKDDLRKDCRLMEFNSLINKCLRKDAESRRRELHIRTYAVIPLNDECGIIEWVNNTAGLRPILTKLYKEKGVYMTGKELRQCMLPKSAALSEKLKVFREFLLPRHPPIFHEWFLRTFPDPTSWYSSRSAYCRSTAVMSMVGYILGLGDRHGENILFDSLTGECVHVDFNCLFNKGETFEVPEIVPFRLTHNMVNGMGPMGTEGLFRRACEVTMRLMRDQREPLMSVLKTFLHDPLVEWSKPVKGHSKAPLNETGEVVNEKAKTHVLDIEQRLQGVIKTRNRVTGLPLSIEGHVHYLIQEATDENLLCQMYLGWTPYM
ATR kinase, sequence (Q8WXE1 whole entry partner): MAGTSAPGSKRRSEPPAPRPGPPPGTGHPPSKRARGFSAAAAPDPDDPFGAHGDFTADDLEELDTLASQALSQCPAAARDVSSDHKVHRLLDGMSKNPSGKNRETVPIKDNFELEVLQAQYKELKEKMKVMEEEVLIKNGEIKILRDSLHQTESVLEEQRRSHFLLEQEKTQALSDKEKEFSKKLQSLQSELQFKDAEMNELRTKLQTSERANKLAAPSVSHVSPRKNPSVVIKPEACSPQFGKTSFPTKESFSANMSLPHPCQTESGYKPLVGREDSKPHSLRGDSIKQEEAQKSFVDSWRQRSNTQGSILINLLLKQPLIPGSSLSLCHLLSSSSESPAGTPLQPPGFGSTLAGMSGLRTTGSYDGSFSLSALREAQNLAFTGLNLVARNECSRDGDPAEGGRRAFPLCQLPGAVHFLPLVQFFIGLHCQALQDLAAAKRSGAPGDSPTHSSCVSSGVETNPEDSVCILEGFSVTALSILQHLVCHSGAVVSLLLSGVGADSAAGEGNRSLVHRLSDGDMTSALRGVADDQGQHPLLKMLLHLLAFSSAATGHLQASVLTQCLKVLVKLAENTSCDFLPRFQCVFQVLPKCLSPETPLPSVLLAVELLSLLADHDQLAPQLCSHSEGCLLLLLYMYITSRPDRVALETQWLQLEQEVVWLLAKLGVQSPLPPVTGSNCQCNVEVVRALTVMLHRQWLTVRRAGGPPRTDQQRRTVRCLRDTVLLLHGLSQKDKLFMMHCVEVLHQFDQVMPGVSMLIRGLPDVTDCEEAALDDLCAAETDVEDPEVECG

| Compound | pIC50 (mTOR) | pIC50 (ATM kinase) | pIC50 (ATR kinase) | pIC50 (PI3K-α) |
| --- | --- | --- | --- | --- |
| CO[C@H]1CC[C@H](n2c(=O)n(C)c3cnc4ccc(-c5ccc(OCCCN6CCCCC6)nc5)cc4c32)C1 [Example 65, 1-[(1S,3S)-3-Methoxycyclopentyl]-3-methyl-8-[6-[3-(1-piperidyl)propoxy]-3-pyridyl]imidazo[4,5-c]quinolin-2-one] | 5.20 | 9.66 | < 4.58 | 5.74 |
| Cn1c(=O)n([C@@H]2CCCOC2)c2c3cc(-c4ccc(OCCCN5CCC5)nc4)ccc3ncc21 [Example 34, 8-[6-[3-(azetidin-1-yl)propoxy]pyridin-3-yl]-3-mehtyl-1-[(3R)-oxan-3-yl]imidazo[5,4-c]quinolin-2-one] | 6.30 | 9.08 | < 4.77 | 6.40 |
| Cn1c(=O)n(C2CCC2)c2c3cc(-c4ccc(OCCCN5CCCCC5)nc4)ccc3ncc21 [Example 57, 1-cyclobutyl-3-methyl-8-[6-[3-(1-piperidyl)propoxy]-3-pyridyl]imidazo[4,5-c]quinolin-2-one trifluoroacetic acid salt] | 5.24 | 9.36 | < 4.52 | < 4.84 |
| CO[C@@H]1CC[C@@H](n2c(=O)n(C)c3cnc4ccc(-c5ccc(OCCCN6CCCC6)nc5)cc4c32)C1 [Example 67, 1-[(1R,3R)-3-methoxycyclopentyl]-3-methyl-8-[6-(3-pyrrolidin-1-ylpropoxy)-3-pyridyl]imidazo[4,5-c]quinolin-2-one] | 6.00 |  | 4.82 | < 5.55 |
| CO[C@H]1CC[C@H](n2c(=O)n(C)c3cnc4ccc(-c5ccc(OCCCN(C)C)nc5F)cc4c32)C1 [Example 69, 8-[6-[3-(dimethylamino)propoxy]-2-fluoro-3-pyridyl]-1-[(1S,3S)-3-methoxycyclopentyl]-3-methyl-imidazo[4,5-c]quinolin-2-one] |  | 9.49 | < 4.52 | < 5.56 |
| CN(C)CCCOc1ccc(-c2ccc3ncc4c(c3c2)n([C@@H]2CCCOC2)c(=O)n4C)cn1 [Example 16, 8-[6-(3-dimethylaminopropoxy)pyridin-3-yl]-3-methyl-1-[(3R)-oxan-3-yl]imidazo[5,4-c]quinolin-2-one] | 6.15 |  | < 4.64 | 6.51 |
| CO[C@@H]1CC[C@@H](n2c(=O)n(C)c3cnc4cc(F)c(-c5ccc(OCCCN(C)C)nc5)cc4c32)C1 [Example 62, 8-[6-[3-(Dimethylamino)propoxy]-3-pyridyl]-7-fluoro-1-[(1R,3R)-3-methoxycyclopentyl]-3-methyl-imidazo[4,5-c]quinolin-2-one] | < 4.52 | 9.29 |  |  |
| Cn1c(=O)n([C@H]2CCCOC2)c2c3cc(-c4ccc(OCCCN5CCCC5)nc4)ccc3ncc21 [Example 29, 3-methyl-1-[(3S)-oxan-3-yl]-8-[6-(3-pyrrolidin-1-ylpropoxy)pyridin-3-yl]imidazo[5,4-c]quinolin-2-one] | 6.22 |  | 4.72 | 5.78 |
| CN(C)CCCOc1ccc(-c2ccc3ncc4c(c3c2)n([C@H]2CCOC2)c(=O)n4C)c(F)n1 [Example 49, 8-[6-[3-(dimethylamino)propoxy]-2-fluoro-3-pyridyl]-3-methyl-1-[(3S)-tetrahydrofuran-3-yl]imidazo[4,5-c]quinolin-2-one methanesulfonic acid salt] | 5.42 | 8.87 | < 4.52 |  |
| CO[C@H]1C[C@@H](n2c(=O)n(C)c3cnc4ccc(-c5ccc(OCCCN(C)C)nc5F)cc4c32)C1 [Example 18, 8-[6-(3-dimethylaminopropoxy)-2-fluoropyridin-3-yl]-1-(cis-3-methoxycyclobutyl)-3-methylimidazo[4,5-c]quinolin-2-one] | 5.42 |  | < 4.52 | 5.56 |
| CO[C@H]1C[C@@H](n2c(=O)n(C)c3cnc4ccc(-c5ccc(OCCCN6CCCC6)nc5)cc4c32)C1 [Example 28, 1-(cis-3-methoxycyclobutyl)-3-methyl-8-[6-(3-pyrroldin-1-ylpropoxy)pyridin-3-yl]imidazo[4,5-c]quinolin-2-one] | 5.56 | 9.75 | < 4.64 |  |
| CO[C@H]1CC[C@H](n2c(=O)n(C)c3cnc4ccc(-c5ccc(OCCCN6CCCC6)nc5)cc4c32)C1 [Example 66, 1-[(1S,3S)-3-methoxycyclopentyl]-3-methyl-8-[6-(3-pyrrolidin-1-ylpropoxy)-3-pyridyl]imidazo[4,5-c]quinolin-2-one] | 5.48 |  | 5.11 | 5.83 |
| CN(C)CCCOc1ccc(-c2ccc3ncc4c(c3c2)n([C@H]2CCCOC2)c(=O)n4C)cn1 [Example 17, 8-[6-(3-dimethylaminopropoxy)pyridin-3-yl]-3-methyl-1-[(3S)-oxan-3-yl]imidazo[5,4-c]quinolin-2-one] | 5.83 |  | < 4.52 | 6.01 |
| CN(C)CCCOc1ccc(-c2ccc3ncc4c(c3c2)n(C2COC2)c(=O)n4C)c(F)n1 [Example 52, 8-[6-[3-(dimethylamino)propoxy]-2-fluoro-3-pyridyl]-3-methyl-1-(oxetan-3-yl)imidazo[4,5-c]quinolin-2-one methanesulfonic acid salt] | 4.92 |  | < 4.52 | 5.14 |

Next, values leading:

| pIC50 (mTOR) | pIC50 (ATM kinase) | pIC50 (ATR kinase) | pIC50 (PI3K-α) | Compound |
| --- | --- | --- | --- | --- |
| 5.31 | 8.69 | < 4.52 | 4.65 | CN(C)CCCOc1ccc(-c2cc3c(cc2F)ncc2c3n(C3(C)CCOCC3)c(=O)n2C)cn1 [Example 3, 8-[6-(3-Dimethylaminopropoxy)pyridin-3-yl]-7-fluoro-3-methyl-1-(4-methyloxan-4-yl)imidazo[5,4-c]quinolin-2-one] |
| 4.86 | 8.58 | < 4.52 | < 4.55 | CO[C@H]1C[C@@H](n2c(=O)n(C)c3cnc4cc(F)c(-c5ccc(OCCCN(C)C)nc5F)cc4c32)C1 [Example 19, 8-[6-(3-dimethylaminopropoxy)-2-fluoropyridin-3-yl]-7-fluoro-1-(cis-3-methoxycyclobutyl)-3-methylimidazo[4,5-c]quinolin-2-one] |
| 4.91 | 8.92 | < 4.53 | 4.68 | Cn1c(=O)n(C2CCOCC2)c2c3cc(-c4ccc(OCCCN5CCCCC5)nc4)ccc3ncc21 [Example 37, 3-methyl-1-(oxan-4-yl)-8-[6-(3-piperidin-1-ylpropoxy)pyridin-3-yl]imidazo[5,4-c]quinolin-2-one] |
| 5.35 | 8.84 | < 4.52 |  | CN(C)CCCOc1ccc(-c2ccc3ncc4c(c3c2)n([C@@H]2CCOC2)c(=O)n4C)c(F)n1 [Example 50] |
| < 4.76 |  | < 4.63 | < 4.53 | CO[C@H]1C[C@@H](n2c(=O)n(C)c3cnc4cc(F)c(-c5ccc(OCCCN6CCCC6)nc5)cc4c32)C1 [Example 27, 7-Fluoro-1-(cis-3-methoxycyclobutyl)-3-methyl-8-[6-(3-pyrrolidin-1-ylpropoxy)pyridin-3-yl]imidazo[4,5-c]quinolin-2-one] |
| 5.80 |  | 4.72 | 5.63 | Cn1c(=O)n(C2CCOCC2)c2c3cc(-c4ccc(OCCCN5CCCC5)nc4)ccc3ncc21 [Example 30, 3-methyl-1-(oxan-4-yl)-8-[6-(3-pyrrolidin-1-ylpropoxy)pyridin-3-yl]imidazo[5,4-c]quinolin-2-one] |
|  | 8.96 and 9.15 | < 4.57 |  | Cn1c(=O)n([C@@H]2CCOC2)c2c3cc(-c4ccc(OCCCN5CCCCC5)nc4)ccc3ncc21 [Example 54, 3-methyl-8-[6-[3-(1-piperidyl)propoxy]-3-pyridyl]-1-[(3R)-tetrahydrofuran-3-yl]imidazo[4,5-c]quinolin-2-one methane sulfonic acid salt] |
|  | 9.26 | < 4.52 | < 4.79 | Cn1c(=O)n([C@H]2CCCOC2)c2c3cc(-c4ccc(OCCCN5CCCC5)nc4F)ccc3ncc21 [Example 61, 8-[2-Fluoro-6-(3-pyrrolidin-1-ylpropoxy)-3-pyridyl]-3-methyl-1-[(3S)-tetrahydropyran-3-yl]imidazo[4,5-c]quinolin-2-one] |
| 5.54 |  |  | 4.91 | CO[C@H]1C[C@@H](n2c(=O)n(C)c3cnc4ccc(-c5ccc(OCCCN6CCCCC6)nc5)cc4c32)C1 [Example 33, 1-(cis-3-methoxycyclobutyl)-3-methyl-8-[6-(3-piperidin-1-ylpropoxy)pyridin-3-yl]imidazo[4,5-c]quinolin-2-one] |
| 6.21 |  | < 4.72 | 6.58 | Cn1c(=O)n([C@@H]2CCCOC2)c2c3cc(-c4ccc(OCCCN5CCCC5)nc4)ccc3ncc21 [Example 59, 3-methyl-8-[6-(3-pyrrolidin-1-ylpropoxy)-3-pyridyl]-1-[(3R)-tetrahydropyran-3-yl]imidazo[4,5-c]quinolin-2-one] |
|  | 9.31 | < 4.79 |  | Cn1c(=O)n([C@H]2CCOC2)c2c3cc(-c4ccc(OCCCN5CCCCC5)nc4)ccc3ncc21 [Example 55, 3-methyl-8-[6-[3-(1-piperidyl)propoxy]-3-pyridyl]-1-[(3S)-tetrahydrofuran-3-yl]imidazo[4,5-c]quinolin-2-one] |
|  | 8.50 | < 4.59 | 6.10 | CN(C)CCCOc1ccc(-c2ccc3ncc4c(c3c2)n(C2CCC2)c(=O)n4C)cn1 [Example 46, 1-cyclobutyl-8-[6-[3-(dimethylamino)propoxy]-3-pyridyl]-3-methyl-imidazo[4,5-c]quinolin-2-one methanesulfonic acid salt] |
